Test results: patent publication EP0013144A1, “Substituted diphenylamine derivatives, compositions and herbicidal uses thereof, and processes for their preparation” (ICI AUSTRALIA LIMITED, priority 1978, dated 1980)

Tests used:
Format in all cases: in vivo
Sugar beet [1] = assay: Post-emergence herbicidal test, young pot plants (Example 33); details: after 14 days
Description: (§1) The compounds were formulated for test by mixing an appropriate amount with 5 ml of an emulsion prepared by diluting 160 ml of a solution containing 21.S g per litre of "Span" 80 and 78.2 g per litre of "Tween" 20 in methylcyclohexanone to 500 ml with water. "Span" 80 is a Trade Mark for a surface-active agent comprising sorbitan monolaurate. "Tween" 20 is a Trade Mark for a surface-active agent comprising a condensate of sorbitan monolaurate with 20 molar proportions of ethylene oxide. Each 5 ml emulsion containing a test compound was'then diluted to 40 ml with water and sprayed on to young pot plants (post-emergence test) of the species named in Table 5 below. Damage to test plants was assessed after 14 days on a scale of 0 to 5 where 0 is 0 to 20% damage and 5 is complete kill. In a test for pre-emergence herbicidal activity, seeds of the test plants were sown in a shallow slit formed in the surface of soil in fibre trays. The surface was then levelled and sprayed, and fresh soil then spread thinly over the sprayed surface. Assessment of herbicidal damage was carried out after 21 days using the same scale of 0 to 5 as the post-emergence test. In both cases the degree of herbicidal damage was assessed by comparison with untreated control plants. A dash (-) means that no experiment was carried out.

Chenopodium album = assay: as above; details: after 14 days
Description: as §1

Soy bean [2] = assay: as above; details: after 14 days
Description: as §1

Cotton [3] = assay: as above; details: after 14 days
Description: as §1

Ipomea purpurea [4] = assay: as above; details: after 14 days
Description: as §1

Amaranthus retroflexus = assay: as above; details: after 14 days
Description: as §1

Rice [5] = assay: Pre-emergence herbicidal test, fibre trays (Example 33); set-up: key: 0 is 0 to 20% damage; 5 is complete kill; details: after 21 days
Description: as §1

Ipomea = assay: Pre-emergence herbicidal activity (Example 31); details: after three weeks
How it was run: (§2)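 Seeded soil boxes (seeds at 2 cm) were sprayed with water-diluted emulsifiable concentrates or milled suspensions, then held under glass. Three weeks later, visual scoring: 0 = 0–25% damage, 3 = 75–99% kill, 3+ = complete kill; unsprayed duplicate boxes as reference.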

Japanese millet = assay: Pre-emergence herbicidal activity (Example 31); details: after three weeks
How it was run: as §2

Sunflower = assay: Pre-emergence herbicidal activity (Example 31); details: after three weeks
How it was run: as §2

Mustard = assay: Pre-emergence herbicidal activity (Example 31); details: after three weeks
How it was run: as §2

Senecio vulgaris = assay: Pre-emergence herbicidal test, fibre trays (Example 33); details: after 21 days
Description: as §1

Sugar beet [6] = assay: as above; details: after 21 days
Description: as §1

Soy bean [7] = assay: as above; details: after 21 days
Description: as §1

Cotton [8] = assay: as above; details: after 21 days
Description: as §1

Rape = assay: as above; details: after 21 days
Description: as §1

Ipomea purpurea [9] = assay: as above; details: after 21 days
Description: as §1

Winter wheat [10] = assay: as above; details: after 21 days
Description: as §1

Rice [11] = assay: Post-emergence herbicidal test, young pot plants (Example 33); set-up: key: 0 is 0 to 20% damage; 5 is complete kill; details: after 14 days
Description: as §1

Maize = assay: as above; set-up: key: 0 is 0 to 20% damage; 5 is complete kill; details: after 14 days
Description: as §1

Winter wheat [12] = assay: as above; set-up: key: 0 = 0-20% damage, 5 = complete kill, vs untreated control; details: after 14 days
Description: as §1

Wheat = assay: Post-emergence herbicidal activity (Example 32); set-up: key: 0-3 scale: 0 = 0-25% damage, 3 = 75-99% kill, 3+ = 100% kill; details: 3 weeks after spraying
How it was run: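 Seeds sown in soil 2 cm deep; monocots and dicots in separate boxes. Seedlings grown under glass to 10–12.5 cm, then sprayed with aqueous dilutions of emulsifiable concentrate or suspension formulations. Boxes returned to glasshouse for 3 weeks and injury rated visually (0–3, 3+ total kill).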

Row | Compound | damage to test plants, Sb (Sugar beet [1]; 2.0 kg/ha) | damage to test plants, Ca (Chenopodium album; 2.0 kg/ha) | damage to test plants, Sy (Soy bean [2]; 2.0 kg/ha) | damage to test plants, Ct (Cotton [3]; 2.0 kg/ha) | damage to test plants, Ip (Ipomea purpurea [4]; 2.0 kg/ha) | damage to test plants, Am (Amaranthus retroflexus; 2.0 kg/ha) | herbicidal damage, Rc (Rice [5]; 2.0 kg/ha) | damage to plants, Ip (Ipomea; 1 kg/ha) | damage to plants, Ip (Ipomea; 5 kg/ha) | damage to plants, Jm (Japanese millet; 1 kg/ha) | damage to plants, Jm (Japanese millet; 5 kg/ha) | damage to plants, Sf (Sunflower; 1 kg/ha) | damage to plants, Sf (Sunflower; 5 kg/ha) | damage to plants, Ms (Mustard; 1 kg/ha) | damage to plants, Ms (Mustard; 5 kg/ha) | herbicidal damage, Sn (Senecio vulgaris; 2.0 kg/ha) | herbicidal damage, Sb (Sugar beet [6]; 2.0 kg/ha) | herbicidal damage, Sy (Soy bean [7]; 2.0 kg/ha) | damage to plants, Wh (Wheat; 1 kg/ha) | damage to plants, Wh (Wheat; 5 kg/ha) | further results
1 | COC(=O)C(C)Oc1ccc(N(C)c2ccc(Cl)cc2Cl)cc1 (stereo not drawn) [Compound 1, Methyl 2-[4-(2,4-dichloro-N-methylanilino)phenoxy]-propionate] | 3 | 3 | 1 | 1 | 0 (0 is 0 to 20% damage) | 2 | 0 (0 is 0 to 20% damage) | 0 (0 represents from 0 to 25% damage) | 0 (0 represents from 0 to 25% damage) | 0 (0 represents from 0 to 25% damage) | 0 (0 represents from 0 to 25% damage) | 0 (0 represents from 0 to 25% damage) | 0 (0 represents from 0 to 25% damage) | 0 (0 represents from 0 to 25% damage) | 0 (0 represents from 0 to 25% damage) | 0 (0 is 0 to 20% damage) | 0 (0 is 0 to 20% damage) | 2 | 0 (0 represents 0 to 25% damage) | 1 | herbicidal damage, Ct (Cotton [8]; 2.0 kg/ha): 0 (0 is 0 to 20% damage); herbicidal damage, Rp (Rape; 2.0 kg/ha): 2; herbicidal damage, Ip (Ipomea purpurea [9]; 2.0 kg/ha): 0 (0 is 0 to 20% damage); herbicidal damage, Ww (Winter wheat [10]; 2.0 kg/ha): 0 (0 is 0 to 20% damage); damage to test plants, Rc (Rice [11]; 2.0 kg/ha): 0 (0 is 0 to 20% damage); damage to test plants, Mz (Maize; 2.0 kg/ha): 5; damage to test plants, Ww (Winter wheat [12]; 2.0 kg/ha): 3
2 | COC(=O)C(C)Oc1ccc(N(C)c2ccc(Cl)cc2[N+](=O)[O-])cc1 (stereo not drawn) [Compound 27] | 0 (0 is 0 to 20% damage) | 0 (0 is 0 to 20% damage) | 0 (0 is 0 to 20% damage) | 0 (0 is 0 to 20% damage) | 0 (0 is 0 to 20% damage) | 0 (0 is 0 to 20% damage) | 5 | 0 (0 represents from 0 to 25% damage) | 0 (0 represents from 0 to 25% damage) | 1 | 3 (3 represents 75 to 99% kill) | 0 (0 represents from 0 to 25% damage) | 0 (0 represents from 0 to 25% damage) | 0 (0 represents from 0 to 25% damage) | 0 (0 represents from 0 to 25% damage) | 1 | 0 (0 is 0 to 20% damage) | 0 (0 is 0 to 20% damage) | 2 | 3+ (3+ represents 100% kill) | herbicidal damage, Ct (Cotton [8]; 2.0 kg/ha): 0 (0 is 0 to 20% damage); herbicidal damage, Rp (Rape; 2.0 kg/ha): 0 (0 is 0 to 20% damage); herbicidal damage, Ip (Ipomea purpurea [9]; 2.0 kg/ha): 0 (0 is 0 to 20% damage); herbicidal damage, Ww (Winter wheat [10]; 2.0 kg/ha): 1; damage to test plants, Rc (Rice [11]; 2.0 kg/ha): 4; damage to test plants, Mz (Maize; 2.0 kg/ha): 5; damage to test plants, Ww (Winter wheat [12]; 2.0 kg/ha): 4
3 | COC(=O)C(C)Oc1ccc(Nc2ccc(Cl)cc2[N+](=O)[O-])cc1 (stereo not drawn) [Compound 28] | – | – | – | – | – | – | – | 0 (0 represents from 0 to 25% damage) | 0 (0 represents from 0 to 25% damage) | 3+ (3+ represents 100% kill) | 3+ (3+ represents 100% kill) | 0 (0 represents from 0 to 25% damage) | 0 (0 represents from 0 to 25% damage) | 0 (0 represents from 0 to 25% damage) | 0 (0 represents from 0 to 25% damage) | – | – | – | 3 (3 represents 75 to 99% kill) | 3+ (3+ represents 100% kill) | damage to test plants, Sb (Sugar beet [1]; 1.0 kg/ha): 1; damage to test plants, Ca (Chenopodium album; 1.0 kg/ha): 0 (0 is 0 to 20% damage); damage to test plants, Sy (Soy bean [2]; 1.0 kg/ha): 0 (0 is 0 to 20% damage); damage to test plants, Ct (Cotton [3]; 1.0 kg/ha): 0 (0 is 0 to 20% damage); damage to test plants, Ip (Ipomea purpurea [4]; 1.0 kg/ha): 0 (0 is 0 to 20% damage); damage to test plants, Am (Amaranthus retroflexus; 1.0 kg/ha): 0 (0 is 0 to 20% damage); herbicidal damage, Rc (Rice [5]; 1.0 kg/ha): 1; herbicidal damage, Sn (Senecio vulgaris; 1.0 kg/ha): 0 (0 is 0 to 20% damage); herbicidal damage, Sb (Sugar beet [6]; 1.0 kg/ha): 0 (0 is 0 to 20% damage); herbicidal damage, Sy (Soy bean [7]; 1.0 kg/ha): 0 (0 is 0 to 20% damage); herbicidal damage, Ct (Cotton [8]; 1.0 kg/ha): 0 (0 is 0 to 20% damage); herbicidal damage, Rp (Rape; 1.0 kg/ha): 0 (0 is 0 to 20% damage); herbicidal damage, Ip (Ipomea purpurea [9]; 1.0 kg/ha): 0 (0 is 0 to 20% damage); herbicidal damage, Ww (Winter wheat [10]; 1.0 kg/ha): 2; damage to test plants, Rc (Rice [11]; 1.0 kg/ha): 4; damage to test plants, Mz (Maize; 1.0 kg/ha): 5; damage to test plants, Ww (Winter wheat [12]; 1.0 kg/ha): 4
4 | COC(=O)C(C)Oc1ccc(Nc2ccc(Br)cc2[N+](=O)[O-])cc1 (stereo not drawn) [Compound 29] | 0 (0 is 0 to 20% damage) | 0 (0 is 0 to 20% damage) | 2 | 0 (0 is 0 to 20% damage) | 0 (0 is 0 to 20% damage) | 0 (0 is 0 to 20% damage) | 3 | 0 (0 represents from 0 to 25% damage) | 0 (0 represents from 0 to 25% damage) | 2 | 3 (3 represents 75 to 99% kill) | 0 (0 represents from 0 to 25% damage) | 0 (0 represents from 0 to 25% damage) | 0 (0 represents from 0 to 25% damage) | 0 (0 represents from 0 to 25% damage) | 3 | 0 (0 is 0 to 20% damage) | 0 (0 is 0 to 20% damage) | 2 | 3+ (3+ represents 100% kill) | herbicidal damage, Ct (Cotton [8]; 2.0 kg/ha): 0 (0 is 0 to 20% damage); herbicidal damage, Rp (Rape; 2.0 kg/ha): 0 (0 is 0 to 20% damage); herbicidal damage, Ip (Ipomea purpurea [9]; 2.0 kg/ha): 0 (0 is 0 to 20% damage); herbicidal damage, Ww (Winter wheat [10]; 2.0 kg/ha): 3; damage to test plants, Rc (Rice [11]; 2.0 kg/ha): 5; damage to test plants, Mz (Maize; 2.0 kg/ha): 5; damage to test plants, Ww (Winter wheat [12]; 2.0 kg/ha): 4
5 | COC(=O)C(C)Oc1ccc(N(C)c2ccc(Br)cc2[N+](=O)[O-])cc1 (stereo not drawn) [Compound 30] | 0 (0 is 0 to 20% damage) | 0 (0 is 0 to 20% damage) | 2 | 0 (0 is 0 to 20% damage) | 0 (0 is 0 to 20% damage) | 0 (0 is 0 to 20% damage) | 5 | 0 (0 represents from 0 to 25% damage) | 0 (0 represents from 0 to 25% damage) | 1 | 3 (3 represents 75 to 99% kill) | 0 (0 represents from 0 to 25% damage) | 0 (0 represents from 0 to 25% damage) | 1 | 2 | 2 | 0 (0 is 0 to 20% damage) | 0 (0 is 0 to 20% damage) | 2 | 3+ (3+ represents 100% kill) | herbicidal damage, Ct (Cotton [8]; 2.0 kg/ha): 0 (0 is 0 to 20% damage); herbicidal damage, Rp (Rape; 2.0 kg/ha): 0 (0 is 0 to 20% damage); herbicidal damage, Ip (Ipomea purpurea [9]; 2.0 kg/ha): 0 (0 is 0 to 20% damage); herbicidal damage, Ww (Winter wheat [10]; 2.0 kg/ha): 1; damage to test plants, Rc (Rice [11]; 2.0 kg/ha): 4; damage to test plants, Mz (Maize; 2.0 kg/ha): 5; damage to test plants, Ww (Winter wheat [12]; 2.0 kg/ha): 4
